Data published in ChEMBL document CHEMBL1131768, “Orally bioavailable nonpeptide vitronectin receptor antagonists containing 2-aminopyridine arginine mimetics” (Bioorg Med Chem Lett, 1999).

Tests used:
in vivo [1] = details: rat, iv
in vivo [2] = details: dog, iv
in vivo [3] = details: dog, po
in vivo [4] = details: rat, po
in vivo [5] = details: rat, iv; remark: listed apart in the source
in vivo [6] = details: dog, iv; remark: listed apart in the source

CN1Cc2cc(C(=O)NCc3cccc(N)n3)ccc2N[C@@H](CC(=O)O)C1=O gave a clearance (in vivo [1]) of 63 mL/min/kg, a clearance (in vivo [2]) of 7.8 mL/min/kg and a bioavailability (in vivo [3]) of 10%. It also gave a bioavailability (in vivo [4]) of 13%, a half-life (in vivo [5]) of 45 min and a half-life (in vivo [6]) of 47 min.
